Consider two compounds from paper PMC9001717, “Tyrosine 121 moves revealing a ligandable pocket that couples catalysis to ATP-binding in serine racemase” (Communications Biology, 2022).

The subject of test [1] is human SR. Details: method as in ref 57,58 (a number printed in a supplementary file, which may have a reference list of its own: not looked up in the article's list). As to conditions: upon addition of ATP; cited from earlier work.
Test [2] has as its system hSR. Also noted: method as in PMID 25331425. As to conditions: cited from earlier work.
Test [3] deals with T1, human SR (hSR) (Homo sapiens, UniProt Q9GZT4, C2D/C6D).
T1 construct: (His)6 (C); made in house; host or cells: E. coli (BL21-CodonPlus (DE3)-RIL for the mutants; the wild type is only 'as described[33]')
T1 sequence (Q9GZT4 1-340 C2D/C6D): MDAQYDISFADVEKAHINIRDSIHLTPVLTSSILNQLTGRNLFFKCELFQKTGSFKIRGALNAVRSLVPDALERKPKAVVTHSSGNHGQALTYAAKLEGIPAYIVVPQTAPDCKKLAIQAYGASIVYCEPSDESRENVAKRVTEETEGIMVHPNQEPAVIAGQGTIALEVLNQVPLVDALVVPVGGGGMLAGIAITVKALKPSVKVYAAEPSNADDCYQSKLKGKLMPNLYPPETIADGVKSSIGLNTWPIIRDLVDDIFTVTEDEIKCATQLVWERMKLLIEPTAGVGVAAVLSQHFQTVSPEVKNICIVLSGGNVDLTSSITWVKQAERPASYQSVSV
As to the kind of experiment: Thermal denaturation assay. The test is classed as binding. On the procedure:
The melting temperature (Tm) of SR was determined in the presence and absence of malonate (disodium salt) and 1 mM ATP (disodium salt, Fisher) in a buffer containing 100 mM CHES pH 8.5, 1 mM MgCl2, and 10 µM PLP. The reaction mixture was prepared in 96-well plates containing final concentrations of 2 µM SR, 5X SYPRO Orange dye (from 5000X concentrate, ThermoFisher), and a 6-point 1:3 dilution series of malonate (0–1 mM). Each condition was assessed with and without 1 mM ATP in the buffer. Thermal denaturation analysis was performed in triplicate by transferring 10 µL reaction mixture to 384-well plates for use in a BioRad CFX384 Touch Real-Time PCR Detection System. Programme: 10 min hold at 25 °C, plate read, increase by increments of 0.5 °C up to 95 °C; each step accompanied by a 15 s hold and plate read. Data were analysed using GraphPad Prism.

Test [4] relates to Yeast SR. Details: method as in ref 4 (a number printed in a supplementary file, which may have a reference list of its own: not looked up in the article's list). As to conditions: ref 4; cited from earlier work.
In test [5] the target is T1, human SR (hSR). Details: method as in PMID 18812225. As to conditions: read-out: inhibition constant (Ki); cited from earlier work.
The test system of test [6] is SR. As to conditions: cited from earlier work.
Test [7] relates to SR. Details: method as in supplementary refs 2, 11-32. As to conditions: literature summary; ref supplementary refs 2, 11-32; cited from earlier work.
For test [8], the target named is T2, human serine racemase (hSR) WT (Homo sapiens, UniProt Q9GZT4, C2D/C6D).
T2 construct: (His)6 (C); made in house; host or cells: E. coli (BL21-CodonPlus (DE3)-RIL for the mutants; the wild type is only 'as described[33]')
T2 sequence (Q9GZT4 1-340 C2D/C6D): T1 sequence (Q9GZT4 1-340 C2D/C6D)
Nature of the test: L- to D-Ser racemisation coupled luminescence assay, wild-type hSR. The test is classed as biochemical. As to conditions: malonate used as control compound. The procedure:
The ability of compounds to inhibit the L to D-Ser racemisation activity of hSR was measured in a coupled assay. In the assay, hSR converts L-Ser to D-Ser. The D-Ser is then converted into pyruvate, ammonia and hydrogen peroxide using D-amino acid oxidase. Next, the hydrogen peroxide reacts with luminol in the presence of horseradish peroxidase, producing luminescent by-product. In the assay malonate was used as a control compound and gave 100% inhibition – results for XChem compounds are shown in Supplementary Table 4 and in supplementary Fig. 12. The activity of the wild-type and the three Y121 mutants, Y121F, Y121A and Y121G was measured at six ATP concentrations (1 mM, 0.5 mM, 0.25 mM, 0.125 mM, 0.062 mM and 0.031 mM) as shown in supplementary Fig. 11.
The inhibition of hSR activity was measured using a luminescence assay in a 384 well plate (flat bottom white, Corning). Initially, each well contained 100 mM Tris pH 8.5, 0.05% Pluronic f-127 (VWR), 1 mM MgCl2, 1 mM ATP (disodium salt, Fisher), 10 µM PLP, 0.3 nM hSR, 2 mM L-serine and compound at 16.67 mM to 0.0077 mM (see supplementary Fig. 12) and had 16.7% DMSO concentration. The plate was incubated at RT with shaking for 30 min. After this, the reaction was stopped using a detection mix. The final well concentration was 100 mM Tris pH 8.5, 0.05% Pluronic f-127 (VWR), 1 mM EDTA (Fisher), 0.25 U/mL horseradish peroxidase, 0.5 U/mL D-amino acid oxidase and 25 µM Luminol (Insight Biotechnology) and 8.4% DMSO. The plate was left to incubate covered and shaking for 10 min. The plate was then read using a PHERAstar (BMG) plate reader. For the ATP dependant activity data, the method was kept the same, except for varying the concentration of ATP.
The relative light units read (x) on the PHERAstar were converted into percentage inhibition (PI) using the equation: PI=100x[1−(x−Min)/(Max−Min)] where min is negative control (100% inhibition) and max is the positive control (no inhibition). The IC50s were calculated with GraphPad (Prism 8.3.1, Graphpad Software, San Diego CA).

The subject of test [9] is mouse SR. Details: method as in PMID 28533113. Conditions: cited from earlier work.
The mark [10] stands for this setting: 1 mM of the additive alone, reference Tm 47.3 °C.

Where two headings read alike, the source gives them in different places. A value given as a limit tells only on which side of the number the result lay.

Regarding `Nc1ncnc2c1ncn2[C@@H]1O[C@H](COP(=O)(O)OP(=O)(O)OP(=O)(O)O)[C@@H](O)[C@H]1O` [ATP, Adenosine triphosphate], in test [1], the “increase of D-serine elimination” value is 4 fold, the “increase of L-serine elimination” value was 31 fold and the “increase of L-serine racemisation” value is about 2 fold. In addition, the “increase of hSR affinity for malonate” value in test [2] (effect of ATP on malonate binding to the catalytic site) is recorded as “at least 9 fold”. Further, the ΔTm (usually the shift of the melting midpoint relative to a reference) in test [3] (setting [10]) was −1.3 °C. For the same compound, in test [4], the “increase of both reactions (racemisation and elimination)” value is listed as “less than 2 fold”.
On to `O=C(O)CC(=O)O` [malonate], for which the “increase of the affinity of hSR for ATP” value in test [2] (allosteric effect of malonate on the ATP site) was 100 fold. Besides, the Ki (commonly the equilibrium dissociation constant of an inhibitor or competing ligand from its target) in test [5] was 33 µM; in [6] (review of SR inhibitors), under 100 µM. Moreover, the IC50 (commonly the concentration needed to halve the response being measured) was 67 µM in test [6] (ref 48), 449 µM in test [6] (ref 49) and 770 µM in test [9]. Also, the ΔTm result in test [3] (1 mM ATP and 1 mM malonate together) was “+3.7 °C”; in test [3] (setting [10]), “+1.2 °C”. In [3] (with 1 mM ATP), the “malonate concentration required for the cooperative stabilising effect of ATP and malonate” value is over 0.1 mM. Moreover, the Inhibition mode entry in test [7] is recorded as “Competitive”. The “inhibition by control compound” value in test [8] turned out to be 100%.
